Assay results as given in PubChem BioAssay AID2060510 (Molecular Pharmacology Branch, DTP, NCI, 2025).

Tested on: 439559-082-T-J2-PDC spheroids viability
Assay: Anticancer human tumor 439559-082-T-J2-PDC patient-derived colon adenocarcinoma cell line growth inhibition [GQUAD]
Conditions: for IC50: curve of first compound; for viability, T/C: stronger effect = lower value
Summary of the method: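 Multi-cell-type spheroids of tumor cells with HUVEC and mesenchymal stem cells, treated with drug combinations. Concentrations descend in half-log steps from near clinical Cmax, or from 10 microM where Cmax is unknown; viability read-out.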

[1] = second compound 0.0316 µM, first compound 0.0316 µM
[2] = second compound 0.0316 µM, first compound 0.1 µM
[3] = second compound 0.0316 µM, first compound 0.316 µM
[4] = second compound 0.0316 µM, first compound 1 µM
[5] = second compound 0.0316 µM, first compound 3.16 µM
[6] = second compound 0.0316 µM, first compound 10 µM
[7] = second compound 0.1 µM, first compound 0.0316 µM
[8] = second compound 0.1 µM, first compound 0.1 µM
[9] = second compound 0.1 µM, first compound 0.316 µM
[10] = second compound 0.1 µM, first compound 1 µM
[11] = second compound 0.1 µM, first compound 3.16 µM
[12] = second compound 0.1 µM, first compound 10 µM
[13] = second compound 0.316 µM, first compound 0.0316 µM
[14] = second compound 0.316 µM, first compound 0.1 µM
[15] = second compound 0.316 µM, first compound 0.316 µM
[16] = second compound 0.316 µM, first compound 1 µM
[17] = second compound 0.316 µM, first compound 3.16 µM
[18] = second compound 0.316 µM, first compound 10 µM
[19] = second compound 1 µM, first compound 0.0316 µM
[20] = second compound 1 µM, first compound 0.1 µM
[21] = second compound 1 µM, first compound 0.316 µM
[22] = second compound 1 µM, first compound 1 µM
[23] = second compound 1 µM, first compound 3.16 µM
[24] = second compound 1 µM, first compound 10 µM
[25] = second compound 3.16 µM, first compound 0.0316 µM
[26] = second compound 3.16 µM, first compound 0.1 µM
[27] = second compound 3.16 µM, first compound 0.316 µM
[28] = second compound 3.16 µM, first compound 1 µM
[29] = second compound 3.16 µM, first compound 3.16 µM
[30] = second compound 3.16 µM, first compound 10 µM
[31] = second compound 10 µM, first compound 0.0316 µM
[32] = second compound 10 µM, first compound 0.1 µM
[33] = second compound 10 µM, first compound 0.316 µM
[34] = second compound 10 µM, first compound 1 µM
[35] = second compound 10 µM, first compound 3.16 µM
[36] = second compound 10 µM, first compound 10 µM
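Note: spheroids exposed to the agents for 7 days before readout.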
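Throughout, for viability, T/C: percent of luminescence signal in DMSO vehicle wells taken as 100% viability.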

SMILES: COc1cc(C2c3cc4c(cc3C(OC3OC5COC(C)OC5C(O)C3O)C3COC(=O)C23)OCO4)cc(OC)c1O (stereo unspecified) + CN(C)c1ccc(Nc2c3ccc(NC(=O)CCN4CCCC4)cc3nc3cc(NC(=O)CCN4CCCC4)ccc23)cc1
- IC50 (second compound 0.0316 µM): > 10 µM
- IC50 (second compound 0.1 µM): > 10 µM
- IC50 (second compound 0.316 µM): > 10 µM
- IC50 (second compound 1 µM): > 10 µM
- IC50 (second compound 3.16 µM): > 10 µM
- IC50 (second compound 10 µM): > 10 µM
- viability, T/C [1]: 102%
- viability, T/C [2]: 93.9%
- viability, T/C [3]: 103%
- viability, T/C [4]: 85.6%
- viability, T/C [5]: 87.1%
- viability, T/C [6]: 63.8%
- viability, T/C [7]: 96.4%
- viability, T/C [8]: 91.8%
- viability, T/C [9]: 98.4%
- viability, T/C [10]: 94.7%
- viability, T/C [11]: 85%
- viability, T/C [12]: 61.9%
- viability, T/C [13]: 104%
- viability, T/C [14]: 104%
- viability, T/C [15]: 89.6%
- viability, T/C [16]: 89%
- viability, T/C [17]: 78.6%
- viability, T/C [18]: 59.9%
- viability, T/C [19]: 104%
- viability, T/C [20]: 94.2%
- viability, T/C [21]: 89.6%
- viability, T/C [22]: 90%
- viability, T/C [23]: 76.5%
- viability, T/C [24]: 57%
- viability, T/C [25]: 98%
- viability, T/C [26]: 87.1%
- viability, T/C [27]: 104%
- viability, T/C [28]: 92.5%
- viability, T/C [29]: 92.4%
- viability, T/C [30]: 63.3%
- viability, T/C [31]: 98.5%
- viability, T/C [32]: 93.3%
- viability, T/C [33]: 94.9%
- viability, T/C [34]: 91.3%
- viability, T/C [35]: 75.9%
- viability, T/C [36]: 54.5%

SMILES: Nc1ccn(C2OC(CO)C(O)C2(F)F)c(=O)n1 (stereo unspecified) + CN(C)c1ccc(Nc2c3ccc(NC(=O)CCN4CCCC4)cc3nc3cc(NC(=O)CCN4CCCC4)ccc23)cc1
- IC50 (second compound 0.0316 µM): 0.261 µM
- IC50 (second compound 0.1 µM): 0.263 µM
- IC50 (second compound 0.316 µM): 0.232 µM
- IC50 (second compound 1 µM): 0.237 µM
- IC50 (second compound 3.16 µM): 0.209 µM
- IC50 (second compound 10 µM): 0.17 µM
- viability, T/C [1]: 78.2%
- viability, T/C [2]: 65.2%
- viability, T/C [3]: 46.7%
- viability, T/C [4]: 32.3%
- viability, T/C [5]: 25.2%
- viability, T/C [6]: 20.5%
- viability, T/C [7]: 85.3%
- viability, T/C [8]: 70.4%
- viability, T/C [9]: 42.6%
- viability, T/C [10]: 36.3%
- viability, T/C [11]: 26.2%
- viability, T/C [12]: 23%
- viability, T/C [13]: 84.8%
- viability, T/C [14]: 68.6%
- viability, T/C [15]: 42.5%
- viability, T/C [16]: 29.2%
- viability, T/C [17]: 26.8%
- viability, T/C [18]: 20.8%
- viability, T/C [19]: 87%
- viability, T/C [20]: 65.7%
- viability, T/C [21]: 45.8%
- viability, T/C [22]: 28.2%
- viability, T/C [23]: 23.1%
- viability, T/C [24]: 19.5%
- viability, T/C [25]: 86.5%
- viability, T/C [26]: 67.9%
- viability, T/C [27]: 38.7%
- viability, T/C [28]: 28.9%
- viability, T/C [29]: 24.4%
- viability, T/C [30]: 19.7%
- viability, T/C [31]: 76.9%
- viability, T/C [32]: 59.9%
- viability, T/C [33]: 39.3%
- viability, T/C [34]: 18.5%
- viability, T/C [35]: 23.2%
- viability, T/C [36]: 18.7%

SMILES: O=c1[nH]cc(F)c(=O)[nH]1 + CN(C)c1ccc(Nc2c3ccc(NC(=O)CCN4CCCC4)cc3nc3cc(NC(=O)CCN4CCCC4)ccc23)cc1
- IC50 (second compound 0.0316 µM): > 10 µM
- IC50 (second compound 0.1 µM): > 10 µM
- IC50 (second compound 0.316 µM): > 10 µM
- IC50 (second compound 1 µM): > 10 µM
- IC50 (second compound 3.16 µM): > 10 µM
- IC50 (second compound 10 µM): > 10 µM
- viability, T/C [1]: 101%
- viability, T/C [2]: 103%
- viability, T/C [3]: 86.6%
- viability, T/C [4]: 81.2%
- viability, T/C [5]: 75.7%
- viability, T/C [6]: 76%
- viability, T/C [7]: 115%
- viability, T/C [8]: 106%
- viability, T/C [9]: 89%
- viability, T/C [10]: 84.1%
- viability, T/C [11]: 77.2%
- viability, T/C [12]: 69.1%
- viability, T/C [13]: 98.2%
- viability, T/C [14]: 105%
- viability, T/C [15]: 85.9%
- viability, T/C [16]: 80.4%
- viability, T/C [17]: 75%
- viability, T/C [18]: 75.2%
- viability, T/C [19]: 97.2%
- viability, T/C [20]: 104%
- viability, T/C [21]: 89%
- viability, T/C [22]: 81.3%
- viability, T/C [23]: 74.6%
- viability, T/C [24]: 81.8%
- viability, T/C [25]: 88.8%
- viability, T/C [26]: 102%
- viability, T/C [27]: 85.5%
- viability, T/C [28]: 73.9%
- viability, T/C [29]: 73.3%
- viability, T/C [30]: 72.1%
- viability, T/C [31]: 96.4%
- viability, T/C [32]: 93.1%
- viability, T/C [33]: 81.5%
- viability, T/C [34]: 74.6%
- viability, T/C [35]: 70.2%
- viability, T/C [36]: 73.5%
